≈ marks a conversion by molar mass, not a printed value.
Key:
Type in all cases: physicochemical
[1] = Organic slurry experiments (7 days, THF or IPA); details: initial Form A
Protocol: Approximately 30 mg of the free form, mesylate, hydrochloride, succinate, glutamate, naphthoate and phosphate salts of formula (I) were weighed to individual HPLG vials equipped with a magnetic stir bar. Either THF or IPA was added to obtain a free flowing slurry. After seven days of ambient equilibration, solid from each slurry was obtained using centrifuge filtration with 0.45 μm nylon centrifuge filters, and dried at ambient temperature and ˜30 in Hg. After drying overnight, each was analyzed by XRPD to check for form conversion and ^1H-NMR for signs of degradation (Table 6).

[2] = Stability at elevated temperature (60° C., 7 days); details: for XRPD (Form) after elevated temperature: 60° C., 7 days, uncovered, ambient pressure, initial Form A
Protocol: Approximately 10 mg of the free form, mesylate, hydrochloride, succinate, glutamate, naphthoate and phosphate salts of formula (I) were weighed to individual 4 mL vials and stored uncovered in an oven at 60° C. and ambient pressure. After seven days of exposure, the solids were analyzed by XRPD to check for form conversion and ^1H-NMR for signs of degradation (Table 5).

[3] = Gravimetric moisture sorption analysis; details: for water adsorbed / hygroscopicity / behaviour at high relative humidity: Form A; for hygroscopicity: gravimetric moisture sorption; for XRPD of dried material following moisture sorption program: initial Form A; for behaviour at high relative humidity: above 80% RH (80% RH to 90% RH)
Protocol: The stability of each salt was assessed via room temperature slurries in organic solvent and water, storage at elevated temperature (60° C.), and exposure to elevated relative humidity by gravimetric moisture sorption. From the water slurries, the solubility of each salt was determined at ambient conditions.

[4] = Aqueous solubility study (water slurry, HPLC, pH, XRPD); details: for pH: pH of supernatant of overnight water slurry; for XRPD (Form) after water slurry: solids after overnight room temperature water slurry, initial Form A
Protocol: Approximately 20 mg of the free form, mesylate, hydrochloride, succinate, glutamate, naphthoate and phosphate salts of formula (I) were weighed to individual HPLC vials equipped with a magnetic stir bar and 0.05 mL increments of deionized water added. If dissolution was observed, the approximate solubility was recorded. If no dissolution had occurred, the slurries were stirred overnight at ambient temperature. The supernatant from each slurry was obtained using centrifuge filters. Each solution was tested for pH and by HPLG versus a calibration curve (FIG. 6) to determine the equilibrium solubility. Solids obtained from the filtration were analyzed by XRPD to confirm the crystalline form (Table 4).

[5] = Gravimetric water solubility by TGA; details: deionized water, ambient, TGA gravimetric or visual dissolution, XRPD Form A
Protocol: The water solubility of select salts afforded from the 70 mg scale experiments was estimated using the following gravimetric method. Approximately 20 mg of each confirmed salt was weighed into a 2 mL HPLC vial. 50 μL increments of deionized H2O were then added to each vial along with a small magnetic stir bar. If dissolution was observed, the samples were stored in a hood overnight and examined the next day for precipitation. Samples affording slurries after a maximum of 250 μl of water were left stirring at ambient conditions overnight to equilibrate. These samples were then centrifuge filtered, and 50 μL of each saturated solution was aliquoted into tared TGA pans. On the TGA, each sample was heated and held at elevated temperature until all solvent was dried off. Resulting dry weight and aliquoted volume for each saturated solution was then utilized in estimating solubility. Refer to Table 3 for results of this study.

[6] = Relative humidity study (95% RH); details: five hours, Form A lot HAL-G-29(2)
Protocol: Approximately 30 mg of Form A mono-glutamate salt [lot HAL-G-29(2)] was stored uncovered in a small glass container in a desiccator containing an aqueous saturated solution of Na2HPO4.12H2O to achieve a relative humidity of 95%. After five hours of exposure the solid had deliquesced and the sample was exposed to the lab environment (20% RH) overnight. The resulting dried solid was characterized by XRPD, DSC, and TGA.
As presented above, Form B was obtained following moisture sorption analysis of Form A and subsequent drying. In an effort to generate additional Form B for further characterization, a brief humidity study was performed as described below: approximately 30 mg of Form A mono-glutamate salt [lot HAL-G-29(2)] was stored uncovered in a small glass container in a desiccator containing an aqueous saturated solution of Na2HPO4.12H2O to achieve a relative humidity of 95%.

Structure (SMILES)	XRPD (Form) 7 Days ([1]; ambient slurry in IPA)	XRPD (Form) after elevated temperature [2]	hygroscopicity [3]	XRPD of dried material following moisture sorption program [3]	Estimated Water Solubility [5] [µg/mL]	other results
O=C(O)c1ccc2ccccc2c1O [1-hydroxy-2-napthoic acid]	Form B	Form B	moderately hygroscopic	Form B	4700	water adsorbed ([3]; 60% RH): 1.5 wt %; water adsorbed ([3]; 90% RH): 2.5 wt %; water content during desorption ([3]; curve stabilized from 75%-55% RH): approximately 2.0 wt %; Aqueous Solubility ([4]; deionized water, ambient temperature, overnight slurry, HPLC or visual dissolution, initial XRPD Form A): 2300 µg/mL; pH [4]: 6.2; XRPD (Form) after water slurry [4]: Form C
Cl [Hydrochloric acid]	no signs of conversion	no signs of conversion				
O=C(O)C[C@H](O)C(=O)O [L-Malic acid]					≥80000	Estimated Water Solubility ([5]; listed as malate salt): 80000 µg/mL
O=C1CCC(C(=O)O)N1 (centres unmarked) [2-pyrrolidine-5-carboxylic acid]	no signs of conversion	no signs of conversion	relatively non-hygroscopic	Form B		1H-NMR, signs of degradation [2]: No; behaviour at 95% RH [6]: deliquesced; behaviour at high relative humidity ([3]; listed as glutamate): deliquesced; behaviour at high relative humidity ([3]; listed as mono-glutamate salt): deliquescence
O=C1c2cccc3[nH]nc(c23)CCN1[C@@H]1CN2CCC1CC2 [Free Form, (S)-7-(quinuclidin-3-yl)-8,9-dihydro-2H-azepino[5,4,3-cd]indazol-6(7H)-one]		no signs of form conversion	non hygroscopic	form conversion had not occurred		1H-NMR, signs of degradation [2]: No; water adsorbed ([3]; throughout the humidity program): less than 0.2 wt %; pH [4]: 9.3; XRPD (Form) after water slurry [4]: no change in crystalline form; solubility ([4]; thermodynamic from solid, deionized water, ambient temperature, overnight slurry, HPLC or visual dissolution, initial XRPD Form A): 2000 µg/mL (≈ 6.75 mM); solubility ([5]; thermodynamic from solid, read-out: Estimated Water Solubility): < 2500 µg/mL

Continued, in another order:

XRPD (Form) 7 Days ([1]; ambient slurry in IPA)	XRPD (Form) after elevated temperature [2]	hygroscopicity [3]	XRPD of dried material following moisture sorption program [3]	Estimated Water Solubility [5] [µg/mL]	Structure (SMILES)	other results
no signs of conversion	no signs of conversion				O=C(O)CCC(=O)O [Succinic acid]	
				17400	Cc1ccc(S(=O)(=O)O)cc1 [p-toluenesulfonic acid]	Estimated Water Solubility ([5]; listed as tosylate salt): 20300 µg/mL
	no signs of conversion	moderately hygroscopic	no form conversion had occurred		CS(=O)(=O)O [Methanesulfonic acid]	XRPD (Form) 7 Days ([1]; ambient slurry in THF): no signs of conversion; water adsorbed ([3]; 80% RH): 4.6 wt %; water adsorbed ([3]; 90% RH): 8.8 wt %
no signs of conversion	no signs of conversion				O=P(O)(O)O [Phosphoric acid]	

Reference: patent US20230105412A1, “5-HT3 RECEPTOR MODULATOR, THE CRYSTALLINE FORM, METHODS OF MAKING, AND USE THEREOF” (CHENGDU SCIMOUNT PHARMATECH CO., LTD., priority 2021, published 2023)
